In patent US20110256121A1, “METHODS AND KITS FOR DIAGNOSING OR MONITORING AUTOIMMUNE AND CHRONIC INFLAMMATORY DISEASES” (THE REGENTS OF THE UNIVERSITY OF MICHIGAN, priority 2008, published 2011):
Read-outs that look alike come from different tables or passages of the source.

Experiments:
[1] = system: CD70 mRNA; conditions: treated vs untreated T cells, real time RT-PCR
[2] = system: CD70 promoter; experiment: Bisulfite sequencing of the CD70 promoter in CD4+ T cells; type: cell-based, human; conditions: anti-CD3 and anti-CD28 stimulated CD4+ T cells vs stimulated untreated controls
Procedure: In other studies, T cells were isolated by negative selection using magnetic beads and instructions provided by the manufacturer (Pan T cell Isolation Kit, Miltenyi), and the CD4+ or CD8+ subset was similarly isolated by magnetic cell sorting. Jurkat cells (E6-1) were cultured as previously described (See, e.g., Cornacchia et al., J Immunol 140:2197 (1998)). Purified human CD4+ T cells were first stimulated with plate bound anti-CD3 and soluble anti-CD28. Briefly, 24 well plates were coated with 300 μl of anti-CD3 (10 μg/ml in PBS—SouthernBiotech) 18 hours 4° C., washed, then 2×10^6 purified T cells were added to the wells in 2 ml RPMI 1640/10% FCS containing 2 μg/ml anti-CD28 (SouthernBiotech). The plates were incubated 37° C. in a humidified atmosphere containing 5% CO2 for 18-24 hours, then treated with 5 μm 5-azaC (Aldrich), 50 μm Pca (Sigma), 20 μm Hyd (Aldrich), 40 μm UO126 (Promega) or 25 μm PD98059 (Promega), and cultured for 3 additional days as described (See, e.g., Oelke et al., Arthritis Rheum 50:1850 (2004)).
Bisulfite sequencing. The putative CD70 promoter was identified using the published CD70 cDNA sequence and Tfsitescan software. Deoxycytosine (dC) and deoxymethylcytosine (d^mC) bases in the gene promoter and 5′ flanking sequences were identified by bisulfite treatment of purified DNA followed by nested PCR amplification of 3 sequential fragments to span the entire region. The primers were designed to avoid CG pairs and to account for the conversion of dC to dU by the bisulfite. EcoRI sites were added to the forward primers, and XbaI to the reverse, to facilitate cloning. The amplified fragments were then cloned into PBS+, and 5 clones sequenced for each fragment. The primers used were: […]
The effect of lupus and DNA methylation inhibitors on a regulatory element in the CD70 promoter was examined. DNA was isolated from the CD4+ T cells of 7 healthy individuals or 6 lupus patients, bisulfite treated, the region from −466-−515, containing 6 CG pairs was amplified by PCR, and 5 fragments sequenced from each individual. The average methylation status of the 6 CG pairs for healthy versus lupus individuals is shown (FIG. 8, NI and Lupus, respectively). CD4+ T cells from 5 individuals were also stimulated with PHA, treated with the irreversible DNA methyltransferase inhibitor 5-azacytidine (5-azaC), and the methylation status of the 6 CG pairs similarly analyzed from the 25 fragments sequenced (FIG. 8, 5-azaC). […] Results are presented as the mean±SEM of the average methylation of the 6 CG pairs, measured from the 10-35 determinations/group.
The effects of the DNA methylation inhibitors on the methylation status of this region were then compared. […] Again, 5 cloned fragments were sequenced from each control, for a total of 35 determinations per CG pair. […] FIG. 14 compares the average methylation for the 10 CG pairs (−515 to −423) in the T cells treated with DNA methylation inhibitors relative to stimulated, untreated controls.

[3] = system: CD70-dependent B cell help; experiment: TT48E T cell clone and autologous B cell costimulation without PWM, IgG ELISA; type: cell-based, human; conditions: P<0.05
Procedure: T cell and B cell costimulation assays. E-rosette-purified T cells were stimulated for 16 hours with PHA and then treated with the indicated chemicals for an additional 72 hours as described above. Where indicated, T cell subsets were isolated by negative selection using magnetic beads (Miltenyi). B cells (1-4×10^5) enriched by negative selection using magnetic beads (Miltenyi) and assessed to be 70-85% pure using PE-conjugated anti-human CD21 (PharMingen), were added to washed, drug-treated autologous T cells, at T cell to B cell ratios of 4:1, 2:1, 1:1, 1:2, and 1:4. Where indicated, 0.625 μg/ml of PWM (Aldrich) was added. The cells were cultured in RPMI 1640/10% FBS/penicillin/streptomycin for 8 days in 96-well roundbottomed plates (Costar) containing a 200 μl total volume (performed in duplicate). Cells were supplemented with 50 μl of medium on day 4. Where indicated, 1 μg/ml of anti-CD70 monoclonal antibody (HNE51) (Dako) was added to the cultures. TT48E cells were similarly stimulated with PHA (1 μg/ml) for 18 hours, treated with the indicated drugs for 3 days, then similarly cultured with autologous B cells for 8 days. […]
IgG enzyme-linked immunosorbent assays (ELISAs). […] Serial dilutions of purified human IgG (Sigma) were used for quantitation. […] The plates were read at 405 nm using a SpectraMax spectrophotometer (Molecular Devices). […]

[4] = system: TT48E; conditions: 6 experiments

Nc1ncn([C@@H]2O[C@H](CO)[C@@H](O)[C@H]2O)c(=O)n1 [5-azaC, 5-azacytidine]
CD70 mRNA relative to beta-actin [1]: increased the expression of CD70 mRNA | methylation of the 10 CG pairs between −515 and −423 of the CD70 promoter [2]: hypomethylated compared to controls | IgG produced by B cells cultured with drug-treated TT48E vs untreated T cells [3]: produce greater amounts of IgG | increase of CD70 expression on TT48E ([4]; 1 μM 5-azaC, 3 days, P=0.048): 1.69±0.33 fold

N#CC(=C(/N)Sc1ccccc1N)/C(C#N)=C(\N)Sc1ccccc1N [U0126]
CD70 mRNA relative to beta-actin [1]: increased the expression of CD70 mRNA | methylation of the 10 CG pairs between −515 and −423 of the CD70 promoter [2]: appears to demethylate | IgG produced by B cells cultured with drug-treated TT48E vs untreated T cells [3]: produce greater amounts of IgG | increase of CD70 expression on TT48E ([4]; 40 μM U0126, 3 days, P=0.004): 1.87±0.37 fold
